Measurements taken from ChEMBL document CHEMBL1141300, “Putrescine bisamides from Aglaia gigantea” (J Nat Prod, 2007).
Activity calls are given as the source filed them. No cut-off for these calls is given here.

System: Spodoptera littoralis
Assay: Insecticidal activity against Spodoptera littoralis after 6 days
Type: functional, organism-based

SMILES	Activity
CC1=CC(O)N(CCCCNC(=O)/C=C/c2ccccc2)C1=O (configuration not stated)	inactive
C=C(C(=O)NCCCCNC(=O)/C=C/c1ccccc1)[C@@H](O)CO	inactive
